According to patent publication US11648254B2 (Kumquat Biosciences Inc., priority 2021, dated 2023):
Read-outs that look alike come from different tables or passages of the source.

Legend:
[1] = target: SOS1 (Homo sapiens (Human), UniProt Q07889); assay: Ras-SOS interaction assay (HTRF); format: biochemical
[2] = tested on: MIA PaCa-2 cells (K-Ras G12C); assay: Ras-SOS cellular growth inhibition assay (CellTiter-Glo, 3D); format: cell-based
Summary of the method: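 MIA PaCa-2 cells grown in ultra-low-attachment plates (3D) in DMEM/Ham's F12 with 10% FCS and 2.5% horse serum, treated the day after seeding with a 9-point 3-fold compound series for about 5 days. Viability by CellTiter-Glo luminescence; IC50 from four-parameter fit.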

[3] = tested on: NCI-H1975 cells (EGFR T790M L858R); assay: EGFR-SOS cellular inhibition assay (CellTiter-Glo, 3D); format: cell-based
[4] = In vitro plasma protein binding (PPB); format: in vitro ADME; conditions: percentage of free/unbound compound
[5] = K-RasG13D utilized, read-out: IC50 inhibition of SOS
[6] = K-RasG13D, read-out: IC50 value against SOS1
[7] = Homo sapiens, MIA PaCa-2, 120 h, MIA PaCa-2, 3D proliferation, about 5 days, read-out: Bio-Cell-Prolif-3D (MiaPaca2 IC50)
[8] = Homo sapiens, MIA PaCa-2, MIA PaCa-2, read-out: IC50 in inhibiting MIA PaCa-2 cell growth
[9] = Homo sapiens, 120 h, NCI-H1975, 3D proliferation, about 5 days, read-out: Bio-Cell-Prolif-3D (H1975 IC50)
[10] = Homo sapiens, NCI-H1975, EGFR T790M L858R, read-out: IC50 in inhibiting growth of NCI-H1975 cell line

Sequence of SOS1 (Q07889 564-1049): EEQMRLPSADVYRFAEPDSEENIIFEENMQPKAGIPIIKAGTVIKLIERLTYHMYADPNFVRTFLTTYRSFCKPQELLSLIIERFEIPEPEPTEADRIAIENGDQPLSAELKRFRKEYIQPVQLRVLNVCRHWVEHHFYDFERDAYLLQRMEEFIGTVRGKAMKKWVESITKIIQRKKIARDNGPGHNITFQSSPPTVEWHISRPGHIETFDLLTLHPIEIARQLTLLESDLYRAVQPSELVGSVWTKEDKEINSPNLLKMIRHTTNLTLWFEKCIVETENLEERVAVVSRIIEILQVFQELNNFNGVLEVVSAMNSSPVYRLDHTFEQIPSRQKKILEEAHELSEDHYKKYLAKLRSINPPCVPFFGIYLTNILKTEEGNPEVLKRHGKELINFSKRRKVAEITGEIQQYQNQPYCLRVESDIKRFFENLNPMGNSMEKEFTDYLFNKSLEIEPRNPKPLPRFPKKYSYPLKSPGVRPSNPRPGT

Row | IC50 [1, 5] [nM] | IC50 [1, 6] [nM] | IC50 [2, 7] [nM] | IC50 [2, 8] [nM] | IC50 [3, 9] [nM] | IC50 [3, 10] [nM] | DMPK-invitro-PPB (Mouse Unbound) [%] [4] [%] | IC50 ([2]; MIA PaCa-2, 3D proliferation, about 5 days, read-out: Bio-Cell-Prolif-3D (MiaPaca2 IC50)) [nM] | IC50 ([3]; NCI-H1975, 3D proliferation, about 5 days, read-out: Bio-Cell-Prolif-3D (H1975 IC50)) [nM] | IC50 ([3]; NCI-H1975, EGFR T790M L858R, read-out: IC50 in inhibiting growth of NCI-H1975 cell line) [nM] | SMILES
1 | < 100 | < 50 | ≤ 1000 | < 500 | ≤ 1000 | < 500 | 19.85 | – | – | – | COc1nc2ncnc(N[C@H](C)c3cccc(C(F)(F)C(C)(C)O)c3)c2cc1N1CCN(C(C)C)CC1 [Compound 202, (R)-1,1-difluoro-1-(3-(1-((6-(4-isopropylpiperazin-1-yl)-7-methoxypyrido [2,3-d]pyrimidin-4-yl)amino)ethyl)phenyl)-2-methylpropan-2-ol]
2 | < 100 | < 50 | ≤ 1000 | < 500 | ≤ 1000 | < 500 | 0.41 | – | – | – | COc1nc2nc(C)nc(N[C@H](C)c3cccc(C(F)(F)F)c3F)c2cc1N1CCN(C(C)C)CC1 [Compound 211, (R)-N-(1-(2-fluoro-3-(trifluoromethyl)phenyl)ethyl)-6-(4-isopropylpiperazin-1-yl)-7-methoxy-2-methylpyrido[2,3-d]pyrimidin-4-amine]
3 | < 100 | < 50 | ≤ 1000 | < 500 | ≤ 1000 | < 500 | 0.11 | – | – | – | COc1nc2nc(C)nc(N[C@H](C)c3cccc(C(F)(F)F)c3C)c2cc1C1CCN(C(C)C)CC1 [Compound 236, (R)-6-(1-isopropylpiperidin-4-yl)-7-methoxy-2-methyl-N-(1-(2-methyl-3-(trifluoromethyl)phenyl)ethyl)pyrido [2,3-d]pyrimidin-4-amine]
4 | < 100 | < 50 | ≤ 1000 | < 500 | ≤ 1000 | < 500 | 5.6 | – | – | – | COc1nc2ncnc(N[C@H](C)c3cccc(C(C)(F)F)c3F)c2cc1C1CCS(=O)(=O)CC1 [Compound 267, (R)-4-(4-((1-(3-(1,1-difluoroethyl)-2-fluorophenyl)ethyl)amino)-7-methoxypyrido[2,3-d]pyrimidin-6-yl)tetrahydro-2H-thiopyran 1,1-dioxide]
5 | < 100 | < 50 | ≤ 1000 | < 500 | ≤ 1000 | < 500 | 12.22 | – | – | – | COc1nc2ncnc(N[C@H](C)c3cccc(C(F)(F)C(C)(C)O)c3F)c2cc1N1CCN(C(C)C)CC1 [Compound 273, (R)-1,1-difluoro-1-(2-fluoro-3-(1-((6-(4-isopropylpiperazin-1-yl)-7-methoxypyrido[2,3-d]pyrimidin-4-yl)amino)ethyl)phenyl)-2-methylpropan-2-ol]
6 | < 100 | < 50 | ≤ 1000 | < 500 | ≤ 1000 | < 500 | 0.39 | – | – | – | COc1nc2nc(C)nc(N[C@H](C)c3cccc(C(F)(F)F)c3F)c2cc1C1CCN(C(C)C)CC1 [Compound 287, (R)-N-(1-(2-fluoro-3-(trifluoromethyl)phenyl)ethyl)-6-(1-isopropylpiperidin-4-yl)-7-methoxy-2-methylpyrido[2,3-d]pyrimidin-4-amine]
7 | < 100 | < 50 | ≤ 1000 | < 500 | ≤ 1000 | < 500 | 1.24 | – | – | – | COc1nc2nc(C)nc(N[C@H](C)c3cccc(C(F)(F)F)c3F)c2cc1N1CCS(=O)(=O)CC1 [Compound 305, (R)-4-(4-((1-(2-fluoro-3-(trifluoromethyl)phenyl)ethyl)amino)-7-methoxy-2-methylpyrido[2,3-d]pyrimidin-6-yl)thiomorpholine 1,1-dioxide]
8 | < 100 | < 50 | ≤ 1000 | < 500 | ≤ 1000 | < 500 | 2.91 | – | – | – | COc1nc2ncnc(N[C@H](C)c3cccc(C(F)(F)F)c3F)c2cc1N1CCS(=O)(=O)CC1 [Compound 308, (R)-4-(4-((1-(2-fluoro-3-(trifluoromethyl)phenyl)ethyl)amino)-7-methoxypyrido[2,3-d]pyrimidin-6-yl)thiomorpholine 1,1-dioxide]
9 | < 100 | < 50 | 1000 to 10000 | – | ≤ 1000 | < 500 | 9.83 | – | – | – | COc1nc2ncnc(N[C@H](C)c3cccc(C(F)F)c3F)c2cc1N1CCN(C(C)C)CC1 [Compound 316, (R)-N-(1-(3-(difluoromethyl)-2-fluorophenyl)ethyl)-6-(4-isopropylpiperazin-1-yl)-7-methoxypyrido[2,3-d]pyrimidin-4-amine]

The remaining lines, values behind:

Row | SMILES | IC50 [1, 5] [nM] | IC50 [1, 6] [nM] | IC50 [2, 7] [nM] | IC50 [2, 8] [nM] | IC50 [3, 9] [nM] | IC50 [3, 10] [nM] | DMPK-invitro-PPB (Mouse Unbound) [%] [4] [%] | IC50 ([2]; MIA PaCa-2, 3D proliferation, about 5 days, read-out: Bio-Cell-Prolif-3D (MiaPaca2 IC50)) [nM] | IC50 ([3]; NCI-H1975, 3D proliferation, about 5 days, read-out: Bio-Cell-Prolif-3D (H1975 IC50)) [nM] | IC50 ([3]; NCI-H1975, EGFR T790M L858R, read-out: IC50 in inhibiting growth of NCI-H1975 cell line) [nM]
10 | COc1nc2nc(C)nc(N[C@H](C)c3cccc(C(F)F)c3F)c2cc1N1CCS(=O)(=O)CC1 [Compound 131, (R)-4-(4-((1-(3-(difluoromethyl)-2-fluorophenyl)ethyl)amino)-7-methoxy-2-methylpyrido[2,3-d]pyrimidin-6-yl)thiomorpholine 1,1-dioxide] | < 100 | < 50 | ≤ 1000 | < 500 | ≤ 1000 | < 500 | 4.01 | – | – | –
11 | COc1nc2ncnc(N[C@H](C)c3cccc(C(F)F)c3F)c2cc1C1CCS(=O)(=O)CC1 [Compound 146, (R)-4-(4-((1-(3-(difluoromethyl)-2-fluorophenyl)ethyl)amino)-7-methoxypyrido[2,3-d]pyrimidin-6-yl)tetrahydro-2H-thiopyran 1,1-dioxide] | < 100 | < 50 | – | < 500 | – | – | 3.58 | ≤ 1000 | ≤ 1000 | < 500
12 | COc1nc2nc(C)nc(N[C@H](C)c3cccc(C(C)(F)F)c3F)c2cc1C1CCS(=O)(=O)CC1 [Compound 150, (R)-4-(4-((1-(3-(1,1-difluoroethyl)-2-fluorophenyl)ethyl)amino)-7-methoxy-2-methylpyrido[2,3-d]pyrimidin-6-yl)tetrahydro-2H-thiopyran 1,1-dioxide] | – | < 50 | ≤ 1000 | < 500 | ≤ 1000 | < 500 | 2.65 | – | – | –
13 | COc1nc2ncnc(N[C@H](C)c3cccc(C(F)F)c3F)c2cc1N1CCN(C)CC1 [Compound 156, (R)-N-(1-(3-(difluoromethyl)-2-fluorophenyl)ethyl)-7-methoxy-6-(4-methylpiperazin-1-yl)pyrido[2,3-d] pyrimidin-4-amine] | < 100 | < 50 | ≤ 1000 | < 500 | ≤ 1000 | < 500 | 14.53 | – | – | –
14 | COc1nc2ncnc(N[C@H](C)c3cccc(C(F)(F)F)c3F)c2cc1N1CCN(C(C)C)CC1 [Compound 159, (R)-N-(1-(2-fluoro-3-(trifluoromethyl)phenyl)ethyl)-6-(4-isopropylpiperazin-1-yl)-7-methoxypyrido[2,3-d] pyrimidin-4-amine] | < 100 | < 50 | ≤ 1000 | < 500 | ≤ 1000 | < 500 | 3.43 | – | – | –
15 | COc1nc2ncnc(N[C@H](C)c3cccc(C(F)(F)F)c3C)c2cc1N1CCN(C2CCOCC2)CC1 [Compound 160, (R)-7-methoxy-N-(1-(2-methyl-3-(trifluoromethyl)phenyl)ethyl)-6-(4-(tetrahydro-2H-pyran-4-yl)piperazin-1-yl)pyrido[2,3-d]pyrimidin-4-amine] | < 100 | < 50 | ≤ 1000 | – | ≤ 1000 | < 500 | 1.05 | – | – | –
16 | COc1nc2ncnc(N[C@H](C)c3cccc(C(F)(F)F)c3F)c2cc1C1CCN(C(C)C)CC1 [Compound 162, (R)-N-(1-(2-fluoro-3-(trifluoromethyl)phenyl)ethyl)-6-(1-isopropylpiperidin-4-yl)-7-methoxypyrido[2,3-d] pyrimidin-4-amine] | < 100 | < 50 | ≤ 1000 | – | ≤ 1000 | < 500 | 2.19 | – | – | –
17 | COc1nc2ncnc(N[C@H](C)c3cccc(C(F)(F)F)c3F)c2cc1C1CCN(C2CCOCC2)CC1 [Compound 164, (R)-N-(1-(2-fluoro-3-(trifluoromethyl)phenyl)ethyl)-7-methoxy-6-(1-(tetrahydro-2H-pyran-4-yl)piperidin-4-yl)pyrido[2,3-d]pyrimidin-4-amine] | < 100 | < 50 | ≤ 1000 | < 500 | ≤ 1000 | < 500 | 1.6 | – | – | –
18 | COc1nc2nc(C)nc(N[C@H](C)c3cccc(C(F)(F)F)c3C)c2cc1N1CCN(C(C)C)CC1 [Compound 171, (R)-6-(4-isopropylpiperazin-1-yl)-7-methoxy-2-methyl-N-(1-(2-methyl-3-(trifluoromethyl)phenyl)ethyl)pyrido[2,3-d]pyrimidin-4-amine] | < 100 | < 50 | ≤ 1000 | – | ≤ 1000 | < 500 | 0.12 | – | – | –
